Assays:
PLA2 = PLA2 (Apis mellifera, UniProt P00630); settings: pH 8
[1] = biological target: Clostridium perfringens PLC (Clostridium perfringens, UniProt P0C216)
[2] = literature values (Cevc 1993; Adrian et al. 1992); cited from earlier work
PLA2 from bee venom = PLA2 from bee venom (Apis mellifera, UniProt P00630)
PLA2 from bee venom, sequence (P00630 34-167 limits assumed): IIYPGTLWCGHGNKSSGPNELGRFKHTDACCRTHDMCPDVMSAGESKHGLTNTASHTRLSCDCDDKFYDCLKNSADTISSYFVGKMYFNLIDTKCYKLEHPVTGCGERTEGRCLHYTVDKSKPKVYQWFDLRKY

PLA2, sequence (P00630 34-167 limits assumed): as above
Clostridium perfringens PLC, sequence (P0C216 29-398 limits assumed): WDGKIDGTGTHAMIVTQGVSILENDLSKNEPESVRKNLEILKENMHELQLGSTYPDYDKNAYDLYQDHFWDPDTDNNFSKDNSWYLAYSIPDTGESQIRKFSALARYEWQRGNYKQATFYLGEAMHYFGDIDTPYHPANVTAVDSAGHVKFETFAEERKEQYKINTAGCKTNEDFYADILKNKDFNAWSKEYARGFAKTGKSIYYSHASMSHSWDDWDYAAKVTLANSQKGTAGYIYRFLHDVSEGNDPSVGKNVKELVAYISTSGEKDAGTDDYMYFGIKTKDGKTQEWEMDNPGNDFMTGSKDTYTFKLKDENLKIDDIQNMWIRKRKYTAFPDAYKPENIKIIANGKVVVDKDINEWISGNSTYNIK

## 1,2-dimyristoyl-sn-glycero-3-phosphoethanolamine-N-(Oregon Green 500, 5-isomer) [compound 84]
PLA2
  time until all substrate converted to polar product: about 30 min

## 1,2-dioleoyl-sn-glycero-3-phosphoethanolamine-N-(Oregon Green® 488, 5-isomer) [compound 60]
[1]
  cleavage activity: no activity was observed

## CCCCCCCCCCCCCC(=O)OC[C@H](COP(=O)([O-])OCC[N+](C)(C)C)OC(=O)CCCCCCCCCCCCC [DMPC]
[2]
  CMC: about 4 nM

## CCCCCCCCCCCCCC(=O)OC[C@H](COP(=O)(O)OC[C@H](N)C(=O)O)OC(=O)CCCCCCCCCCCCC [DMPS]
[2]
  CMC: about 60 nM

## CCCCCCCCCCCCCCCCOCC(COCC(F)(F)F)OP(=O)(O)OC (centres unmarked) [inhibitor 122]
PLA2 from bee venom
  IC50: ~2000 nM
